Here are results for 24 compounds from patent US20130158075A1, “HETEROCYCLIC COMPOUNDS AS DGAT1 INHIBITORS” (PIRAMAL ENTERPRISES LIMITED, priority 2010, published 2013).

Structures can show the parent of a compound that is named as a salt.

The target of one experiment is T1, hDGAT1 (Homo sapiens, UniProt O75907).
T1 construct: made in house; host or cells: Sf9 insect cells (baculovirus); microsomal fraction
T1 sequence (O75907 1-488): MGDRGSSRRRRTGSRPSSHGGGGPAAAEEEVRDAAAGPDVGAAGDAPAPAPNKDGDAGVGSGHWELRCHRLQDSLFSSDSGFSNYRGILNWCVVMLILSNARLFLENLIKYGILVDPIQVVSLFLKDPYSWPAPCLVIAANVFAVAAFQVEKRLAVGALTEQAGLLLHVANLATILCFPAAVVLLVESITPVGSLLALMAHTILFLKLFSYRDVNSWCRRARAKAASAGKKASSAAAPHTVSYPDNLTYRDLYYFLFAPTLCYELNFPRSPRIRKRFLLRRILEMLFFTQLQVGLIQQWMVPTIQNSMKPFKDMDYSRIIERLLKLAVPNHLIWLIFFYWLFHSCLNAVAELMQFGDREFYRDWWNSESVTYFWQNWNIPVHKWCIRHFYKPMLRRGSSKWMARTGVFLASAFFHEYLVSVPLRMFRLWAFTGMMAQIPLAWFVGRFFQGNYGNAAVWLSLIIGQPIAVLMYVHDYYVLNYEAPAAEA
Description: In-vitro DGAT1 assay with hDGAT1 microsomes from Sf9 cells (14C oleoyl CoA, scintillation counting). Conditions: at 1 μM. The format is biochemical. The protocol: Sf9 cells were grown in T25 flasks containing Graces's Insect media with 10% FBS with antibiotic (100 units/mL penicillin, 100 μg/mL streptomycin sulphate, 0.25 μg/mL Amptotericin B as Fungizone) grown in a 27° C. incubator.
hDGAT10RF expression clone (RZPDo839C09146 in pDEST vector) was obtained from RZPD, German Science Center for Genomes research, Germany. hDGAT1 bacmid DNA was obtained by transformation of the hDGAT1 expression clone into DH10Bac E. coli competent cells. Approximately 1 μg of hDGAT1 bacmid DNA was infected into Sf9 cells with Cellfectin (Invitrogen) reagent. Following infection, Sf9 cells were incubated at 27° C. for 30 min. Five hours after infection, the media was replaced with growth media containing antibiotics (100 units/mL penicillin, 100 μg/mL streptomycin sulphate, 0.25 μg/mL Amptotericin B as Fungizone) and incubated at 27° C. for 72 h. The supernatant containing the virus was centrifuged at 1500×g for 5 min, passed through 0.22 μm filter, and subsequently stored at 4° C. The virus was further amplified three more times by re-infection of Sf9 cells and the viral titer was determined by plaque assay.
Sf9 cells were seeded in spinner flasks on day 0 at a cell density of 1×10^6 and infected on day 1 with hDGAT1 baculovirus at a multiplicity of infection (MOI) of 5 and a cell density of 2×10^6. On day 3 (or 66-72 h), cells were harvested and centrifuged at 2500×g for 10 min. Pellet was resuspended in lysis buffer (100 mM sucrose, 50 mM KCl, 40 mM KH2PO4, 30 mM EDTA, pH 7.2) and passed through 21-gauge needle approximately 10 times. The mixture was centrifuged at 12,000 rpm in a Sigma 12158-H rotor at 4° C. for 30 min. The supernatant was subjected to centrifugation at 35,000 rpm in a Beckman Ti-45 rotor at 4° C. for 1 h. The resultant pellet containing the microsomes wasere resuspended overnight in 1 mL of lysis buffer and total protein concentration was estimated using Bradford Reagent. Microsomes were aliquoted and stored at −80° C.
Frozen aliquots of hDGAT1 containing microsomes were thawed (5-10 mg/mL total protein) on ice and diluted to a working stock of 1 mg/mL with DGAT Assay Buffer (DAB). The DGAT reaction assay was performed by following the procedure described in U.S. Pat. No. 6,607,893 with some modifications that are described below.
1 mL stock solution of DGAT1 substrate mixture contains 5.6 μL of ^14C oleoyl CoA (16.8 nCi) and […] of 1,2-dioleoyl-sn-glycerol (1228.5 μM) 1,2-dioleoyl-sn-glycerol stock (19.5 mM) was prepared by dissolving 25 mg of 1,2-dioleoyl-sn-glycerol (Sigma, US) in 2060 μL of acetone.
The assay was performed in duplicates in a reaction volume of 100 μL.
The reaction was started by the addition of 2.5 μL of 1 mg/mL of microsomes (iv) to the mixture of (i), (ii) and (iii), and incubated at 37° C. for 10 min. The reaction was stopped by the addition of 300 μL of Alkaline Ethanol Stop Solution Mix [AESSM; 12.5% of 100% non-denatured ethanol, 10% deionized water, 2.5% 1N NaOH, 75% stop solution (78.4% isopropanol, 19.6% n-heptane, 2% deionized water)] followed by addition of 600 μL of n-heptane. The mixture was vortexed and the triglycerides formed were extracted into the organic heptane phase. 250 μL of the heptane phase was added into 4 mL scintillation cocktail (66.72% toluene, 33.3% TritonX-100, 0.5% PPO, 0.02% POPOP) and counted on a liquid scintillation counter for 1 min. Data was collected and plotted as a function of concentration in nM versus percentage inhibition of hDGAT1 by the compounds of present invention.
For `CC(=O)NC(=O)CC1CCC(c2ncc(-c3ccc(NC(=O)c4c(F)cccc4F)cc3)s2)CC1` (stereo not drawn) [Example 403, N-(4-(2-(4-(2-Acetamido-2-oxoethyl)cyclohexyl)thiazol-5-yl)phenyl)-2,6-difluoro benzamide], the “Percentage inhibition of hDGAT1” value is recorded as “+ (20-50% Inhibition)”.
On the same count and under the same terms, to “3-(5-(4-(4-Tert-butyl benzamido)phenyl)oxazol-2-yl)-2,2-dimethylpropanoic acid [Example 126]” belongs “+ (20-50% Inhibition)”.

Staying with this experiment, now noted: read-out: Percentage inhibition of hDGAT1.
One may read the inhibition as the relative decrease from the control value, in per cent. In the case of `CC(C)(C)c1ccc(C(=O)Nc2ccc(-c3cnc(CCC(=O)O)s3)cc2)cc1` [Example 15, 3-(5-(4-(4-Tert-butylbenzamido)phenyl)thiazol-2-yl)propanoic acid], the inhibition at 1 µM was more than 50%.
On the same count and under the same terms, to `COc1ccc(NC(=O)Nc2ccc(-c3cnc(CCC(C)(C)C(=O)O)s3)cc2)cc1` [Example 98, 4-(5-(4-(3-(4-Methoxyphenyl)ureido)phenyl)thiazol-2-yl)-2,2-dimethyl butanoic acid] belongs more than 50%; to `CC(C)(C)c1ccc(C(=O)Nc2ccc(-c3nnc(CCCC(=O)O)s3)cc2)cc1` [Example 288, 4-(5-(4-(4-(tert-Butyl)benzamido)phenyl)-1,3,4-thiadiazol-2-yl)butanoic acid], 20 to 50%; to `NCCc1ncc(-c2ccc(NC(=O)Nc3cc(F)cc(F)c3)cc2)s1` [Example 574, 1-(4-(2-(2-Aminoethyl)thiazol-5-yl)phenyl)-3-(3,5-difluorophenyl)urea hydrochloride], 20 to 50%.
The same measure, in the same setting: the same measure for `O=C(Nc1ccc(-c2cnc(C3CCN(S(=O)(=O)C(F)(F)F)CC3)s2)cc1)Nc1ccccc1F` [Example 483, 1-(2-Fluorophenyl)-3-(4-(2-(1-((trifluoromethyl)sulfonyl)piperidin-4-yl)thiazol-5-yl)phenyl)urea]: 20 to 50%; for `O=C(Nc1ccc(-c2cnc(CCNS(=O)(=O)C(F)(F)F)s2)cc1)c1ccccc1Cl` [Example 529, 2-Chloro-N-(4-(2-(2-(trifluoromethylsulfonamido)ethyl)thiazol-5-yl)phenyl)benzamide]: 20 to 50%; for `CC(C)(CC(=O)O)Cc1ncc(-c2ccc(NC(=O)c3ccc(C(C)(C)C)cc3)cc2)s1` [Example 75, 4-(5-(4-(4-tert-Butylbenzamido)phenyl)thiazol-2-yl)-3,3-dimethylbutanoic acid]: more than 50%.
Still for that read-out and setting: to `CCCCOc1ccc(C(=O)Nc2ccc(-c3cnc(CCC(=O)O)s3)cc2)cc1` [Example 23, 3-(5-(4-(4-Butoxybenzamido)phenyl)thiazol-2-yl)propanoic acid] belongs more than 50%; to `CC(C)(CCc1ncc(-c2ccc(NC(=O)Nc3ccc(Cl)cc3Oc3ccccc3)cc2)s1)C(=O)O` [Example 92, 4-(5-(4-(3-(4-Chloro-2-phenoxyphenyl)ureido)phenyl)thiazol-2-yl)-2,2-dimethylbutanoic acid], more than 50%.
As to `O=C(Nc1ccc(-c2cnc(C3CCC(C(=O)O)CC3)s2)cc1)Nc1c(F)cccc1F` (stereo not drawn) [Example 184, 4-(5-(4-(3-(2,6-Difluorophenyl)ureido)phenyl)thiazol-2-yl)cyclohexane carboxylic acid], the inhibition at 1 µM was more than 50%.
On the same count and under the same terms, the same measure for `CC(C)(C)OC(=O)N1CCC(c2ncc(-c3ccc(NC(=O)Nc4c(F)cc(F)cc4F)cc3)s2)CC1` [Example 479, t-Butyl 4-(5-(4-(3-(2,4,6-trifluorophenyl)ureido)phenyl)thiazol-2-yl)piperidine-1-carboxylate]: 20 to 50%.
For `Cc1noc(CC2CCC(c3ncc(-c4ccc(NC(=O)Nc5ccc(F)cc5F)cc4)s3)CC2)n1` (stereo not drawn) [Example 394, 1-(2,4-Difluorophenyl)-3-(4-(2-(4-((3-methyl-1,2,4-oxadiazol-5-yl)methyl)cyclohexyl)thiazol-5-yl)phenyl)urea], the inhibition at 1 µM is more than 50%.
The same measure, in the same setting: to `CC(C)(CCc1ncc(-c2ccc(NC(=O)NCCN3CCCCC3)cc2)s1)C(=O)O` [Example 257, 2,2-Dimethyl-4-(5-(4-(3-(2-(piperidin-1-yl)ethyl)ureido)phenyl)thiazol-2-yl)butanoic acid] belongs 20 to 50%; to `O=C(O)CCc1ncc(-c2ccc(NC(=O)NC3CCCCC3)cc2)s1` [Example 11, 3-(5-(4-(3-Cyclohexylureido)phenyl)thiazol-2-yl)propanoic acid], more than 50%; to `CC(C)(Cc1ncc(-c2ccc(NC(=O)NC3CCCCC3)cc2)s1)C(=O)O` [Example 38, 3-(5-(4-(3-Cyclohexylureido)phenyl)thiazol-2-yl)-2,2-dimethylpropanoic acid], 20 to 50%.
On the same count and under the same terms, the same measure for `CC(C)(CCc1ncc(-c2ccc(NC(=O)Nc3cc(F)c(F)cc3F)cc2)s1)C(=O)O` [Example 237, 2,2-Dimethyl-4-(5-(4-(3-(2,4,5-trifluorophenyl)ureido)phenyl)thiazol-2-yl)butanoic acid]: more than 50%.
Same read-out and setting: to `O=C(O)CCCc1ncc(-c2ccc(NC(=O)Nc3ccc(Cl)cc3Oc3ccccc3)cc2)s1` [Example 55, 4-(5-(4-(3-(4-Chloro-2-phenoxyphenyl)ureido)phenyl)thiazol-2-yl)butanoic acid] belongs more than 50%.
Consider `CC(C)(CCc1ncc(-c2ccc(NC(=O)Nc3nnn[nH]3)cc2)s1)C(=O)O` [Example 247, 4-(5-(4-(3-(1H-tetrazol-5-yl)ureido)phenyl)thiazol-2-yl)-2,2-dimethylbutanoic acid], for which the inhibition at 1 µM lay in the range of 20 to 50%.
Still for that read-out and setting: the same measure for `O=C(O)CCCc1nc(-c2ccc(NC(=O)Nc3ccc(Cl)cc3Oc3ccccc3)cc2)no1` [Example 322, 4-(3-(4-(3-(4-Chloro-2-phenoxyphenyl)ureido)phenyl)-1,2,4-oxadiazol-5-yl) butanoic acid]: more than 50%.
The same measure, in the same setting: the same measure for `O=C(Nc1ccc(-c2cnc(C34CC5CC(CC(C(=O)O)(C5)C3)C4)s2)cc1)Nc1ccccc1F` [Example 502, 3-(5-(4-(3-(2-Fluorophenyl)ureido)phenyl)thiazol-2-yl)adamantane-1-carboxylic acid]: more than 50%; for `O=C(Nc1ccccc1)Nc1ccc(-c2cnc(CCNS(=O)(=O)C(F)(F)F)s2)cc1` [Example 527, 1,1,1-Trifluoro-N-(2-(5-(4-(3-phenylureido)phenyl)thiazol-2-yl)ethyl)methane sulfonamide]: more than 50%; for `CC(C)(N)CC1CCC(c2ncc(-c3ccc(NC(=O)Nc4cc(F)c(F)cc4F)cc3)s2)CC1` (stereo not drawn) [Example 591, 1-(4-(2-(4-(2-Amino-2-methylpropyl)cyclohexyl)thiazol-5-yl)phenyl)-3-(2,4,5-trifluorophenyl)urea]: more than 50%.
